One test has as its target T1, Glk2 (Synechococcus elongatus, UniProt Q31LC8).
T1 construct: gene Synpcc7942_2111
T1 sequence (Q31LC8 1-302): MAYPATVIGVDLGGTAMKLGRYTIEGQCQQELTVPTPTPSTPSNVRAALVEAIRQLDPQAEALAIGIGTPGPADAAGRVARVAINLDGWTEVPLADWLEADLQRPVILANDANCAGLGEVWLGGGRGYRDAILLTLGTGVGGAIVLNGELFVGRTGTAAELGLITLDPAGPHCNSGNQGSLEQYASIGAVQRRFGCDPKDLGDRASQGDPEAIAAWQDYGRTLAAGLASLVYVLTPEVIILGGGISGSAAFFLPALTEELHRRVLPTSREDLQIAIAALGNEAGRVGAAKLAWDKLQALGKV
Kind of test: PK/LDH-coupled sugar phosphorylation assay, […] nm. The class given is biochemical. Conditions: 10 mM sugar, 2.5 mM ATP, 4 mM MgCl2, 20 mM KCl, Tris-HCl pH 7.8.

A further test deals with T2, Glk1 (Synechococcus elongatus, UniProt Q31RR6).
T2 construct: gene glk
T2 sequence (Q31RR6 1-345): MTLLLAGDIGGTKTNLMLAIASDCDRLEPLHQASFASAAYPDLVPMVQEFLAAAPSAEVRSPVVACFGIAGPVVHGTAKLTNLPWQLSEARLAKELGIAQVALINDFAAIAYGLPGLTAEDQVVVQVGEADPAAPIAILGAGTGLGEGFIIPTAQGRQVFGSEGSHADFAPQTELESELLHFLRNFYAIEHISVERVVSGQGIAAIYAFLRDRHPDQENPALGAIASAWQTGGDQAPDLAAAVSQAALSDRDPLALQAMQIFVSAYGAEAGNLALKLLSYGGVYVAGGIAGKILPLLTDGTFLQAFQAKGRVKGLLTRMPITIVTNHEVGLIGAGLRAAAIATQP
Kind of test: PK/LDH-coupled sugar phosphorylation assay, […] nm. Format: biochemical. Conditions: 10 mM sugar, 2.5 mM ATP, 4 mM MgCl2, 20 mM KCl, Tris-HCl pH 7.8.

Molecules are shown by their SMILES.

With `OC[C@H]1OC(O)[C@H](O)[C@@H](O)[C@@H]1O` (some centres unmarked) [glucose], the “PK/LDH-coupled sugar phosphorylation assay, 340 nm” value on Glk2 and at Glk1 was “both the two glucokinases showed phosphorylation activities on some other sugars besides glucose” in each case.

For the origin of these results see article PMC10256809, “Unlocking the potentials of cyanobacterial photosynthesis for directly converting carbon dioxide into glucose” (Nature Communications, 2023).
